Like-named read-outs stand apart in the source and are kept apart here.
Key:
[1] = system: NF-κB-SEAP reporter in THP1-Dual cells; experiment: THP1-Dual NF-κB-SEAP reporter counterscreen; type: cell-based, human; conditions: THP1-Dual; for EC50: Homo sapiens, read-out: THP1 NFkB EC50
Method: THP1 Dual (InvivoGen) cell suspensions were cultured in RPMI 1640 (Hyclone, Logan, Utah) supplemented with 10% fetal bovine serum (Hyclone), 100 U/mL Normocin (Invivogen), and 50 U/mL PenStrep (Gibco, Dublin, Ireland) between a density of 7·10^5-2·10^6 cells/mL. Every other passage, media was supplemented with 5 U/mL Blasticidin and 100 U/mL Zeocin to maintain the expression constructs. White, flat-bottom 384-well plates (Greiner, Kremsmunster, Austria, 781080) were seeded with 2.5·10^4 cells/well in a total of 50 μL media containing 5 ng/mL phorbolmyristic acid (PMA) using a Matrix WellMate (Thermo Scientific) dispenser. After 48 hours of incubation at 37° C., media was removed using a BioTek ELx405 CW plate washer set to aspirate and wash each well three times with 65 μL 1×PBS. Plates were reloaded with 50 μL media without PMA and treatments added. Lipopolysaccharide in dimethylsulfoxide (DMSO) was transferred to control wells using a HP D300 microdispenser to a final concentration of 313 ng/mL. Compounds from chemical library plates were copied using a Sciclone (Caliper LifeSciences) mounted with a 384-pin transfer tool to obtain a final concentration of 10 μM. After incubation with treatments for 24 hours, 10 μL of supernatant media from each well was transferred into a white, flat-bottom 384-well plate for luminescence readout and a black-walled, clear flat-bottom 384-well plate for absorbance readout.
Specifically, to enable screening of novel chemical entities (NCEs) in a larger screening effort, a robust high-throughput cell-based assay system for primary hit identification of ISRE activators based on the above-mentioned target validation was desired. Human ISRE activity was verified using a THP-1 monocyte line containing the NF-κB-SEAP and IRF-Lucia luciferase dual reporter (THP1-Dual; Invivogen) that features two reporter genes, SEAP (secreted embryonic alkaline phosphatase) and Lucia luciferase, thereby enabling the simultaneous study of the NF-κB and IRF signalling pathways. The Lucia luciferase reporter is under the control of an ISG54 (interferon-stimulated gene) minimal promoter in conjunction with five IFN-stimulated response elements. The SEAP gene is driven by an IFN-β minimal promoter fused to five copies of the NF-κB consensus transcriptional response element and three copies of the c-Rel binding site. Both reporter proteins are readily measurable in the cell culture supernatant when using QUANTI-LUC™ and QUANTI-Blue SEAP detection reagents.
Using the experimental design and data analysis outlined above, optimized assay conditions were obtained. The responsiveness of the human THP-1 Dual cell line was evaluated in an array of assay conditions to obtain sensitive and reproducible results for the activation of IRF and NF-κB reporters. An optimal plating density and differentiation protocol for these cells was established in a 384-well format. All transfer steps are fully automated using high throughput robotic equipment. Briefly, cells are seeded in differentiation medium using a Matrix WellMate fitted with the WellMate Stacker (Thermo Scientific) and incubated at 37° C. with 5% CO2 for 48 h. Following differentiation, cells are washed using a BioTek ELx405 Select CW plate washer and growth medium added with the Matrix WellMate. Programmed control treatments are added to wells using a D300 digital dispenser fitted with T8+ dispense heads (Hewlett Packard) designed to dispense nanoliter quantities of material. Compounds from library plates are added using a pin tool fitted to a Sciclone ALH 3000 Workstation (Caliper Life Sciences) programmed with Maestro v4.4. After treatment, plates are returned to incubators for 24 hours. To measure reporter expression, supernatant is collected using the Sciclone and dispensed into 2 plates: 1) a white 384-well assay plate for Lucia luminescence measurements and 2) a clear-bottom black 384-well assay plate for SEAP absorbance measurements. […]

[2] = system: IRF-Lucia luciferase reporter (ISRE) in J774-Dual cells; experiment: J774-Dual IRF-Lucia luciferase reporter assay (ISRE activation); type: cell-based, mouse; conditions: for EC50: Mus musculus
In short: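 Mouse J774-Dual macrophages, seeded in growth medium 24 h at 37 °C, 5% CO2 before treatment; secreted IRF-Lucia (ISRE-driven) and NF-κB-SEAP read with QUANTI-Luc and QUANTI-Blue. EC50 and CC50 from 8-point dose-response, cytotoxicity by CellTiter-Glo; ISRE:NF-κB ratio calculated.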

[3] = system: NF-κB-SEAP reporter in J774-Dual cells; experiment: J774-Dual NF-κB-SEAP reporter assay; type: cell-based, mouse; conditions: Mus musculus, read-out: J774 NFkB EC50
Method: First, optimal assay conditions and assay quality in 384-well format were determined. As mentioned, the mouse macrophage J774 cell line (J774-Dual, InvivoGen) stably transfected with the same inducible reporters described above (e.g., IRF-Lucia luciferase and NF-κB-SEAP) was used. The responsiveness of the J774-Dual cell line was investigated in an array of assay conditions to obtain sensitive and reproducible results for the activation of the IRF and NF-κB reporters. An optimal plating density and conditions for these cells was established for these cells in a 384-well format. Assay work-flow is similar to that discussed above for the THP1-Dual assay without a need for cell differentiation. Thus, cells are seeded directly in growth medium and incubated at 37° C. in a 5% C02 incubator for 24 hours prior to the programmed treatments being added as described herein.
The primary high throughput screen used the HTS platform of human THP1 monocyte cells containing the IRF-Lucia luciferase and NFκB-SEAP (secreted embryonic alkaline phosphatase) dual reporter (THP1-Dual, Invivogen), enabling the simultaneous study of the IRF and NFκB signaling pathways respectively. As discussed, the Lucia luciferase reporter gene is under the control of an ISG54 (interferon-stimulated gene) minimal promoter in conjunction with five interferon-stimulated response elements (ISRE). The SEAP gene is driven by an IFNβ minimal promoter fused to five copies of the NFκB consensus transcriptional response element and three copies of the c-Rel binding site. Both IRF-Lucia luciferase and NFκB-SEAP reporter proteins are secreted and readily measurable in the cell culture supernatant when using QUANTI-Luc™ and QUANTI-Blue™ detection reagents, respectively. Identified “hits” were confirmed in a secondary screen with an 8-point dose response curve. Hits were further screened for activity in the mouse using the mouse J774 macrophage-like cell line containing the identical reporter constructs (J774-Dual, Invivogen).
The OTRADI Small Molecule Library of approximately 246,000 diverse compounds (see below for description) was screened using the THP1-Dual based HTS platform described above. All transfer steps in the screen are fully automated, thus reducing variability. Primary screening included a single data point or dose for each molecule. After data normalization was applied for each assay run, “hit” selection was performed on the plates that pass the quality control (QC) criterion. Hits were defined as samples having values above the activity cutoff determined based on noise level of the assay to reduce false positive rates. In the pilot study discussed above this activity value was >3σ above the ISRE mean with the added criteria of NFκB activation being lower than […] from the mean to identify IRF selective compounds. The ratio of ISRE:NFκB activity was also calculated as a selectivity index for prioritizing hit selection. Primary hits underwent secondary screening to determine the 50% effective concentration (EC50) and 50% cytotoxic concentration (CC50) of these agents using an 8-point dose-response curve in the human THP1-Dual cells. Cytotoxicity was measured in the plate using Cell Titer Glo (Promega). Identified candidate compounds were further screened (orthogonal screen) for cross species activity in the validated mouse J774-Dual assay using an 8-point dose-response format to determine EC50 and CC50 values as well as ISRE:NFκB ratios. A general process flow for the experimental design laid out above is depicted at FIG. 12.

[4] = Human Reporter Cell Line, 8-point dose response
[5] = J774, Mouse Reporter Cell Line, 8-point dose response, read-out: J774 IRF EC50
[6] = J774, Mouse Reporter Cell Line, 8-point dose response
[7] = J774, Mouse Reporter Cell Line J774
[8] = Mouse Reporter Cell Line J774, at peak
[9] = J774, Mouse Reporter Cell Line J774, read-out: J774 IRF EC50

EC50 [2, 5] [µM]	EC50 [2, 9] [µM]	Compound	EC50 [1, 4] [µM]	J774 IRF % activation at peak ([2]; Mouse Reporter Cell Line) [%]	EC50 ([1]; Human Reporter Cell Line THP1) [µM]	J774 IRF % activation at peak [2, 8] [%]	also measured
	3.58	COc1ccc(-c2nc3cc(C(C)C)ccc3o2)cc1NC(=O)c1ccc(C)c([N+](=O)[O-])c1 [ND-16]			3.25	83.02	EC50 [3, 7]: 6.75 µM
	5.87	COc1ccc(C(=O)Nc2cc(-c3nc4ccccc4s3)ccc2C)cc1[N+](=O)[O-] [ND52, N-[5-(1,3-benzothiazol-2-yl)-2-methylphenyl]-4-methoxy-3-nitrobenzamide]			~5.51	131.7	EC50 [3, 7]: 7.53 µM
	4.53	ClCCCOc1ccc(-c2nc3cc(OCCCN4CCCC4)ccc3o2)cc1 [ND-94]			~23.6	5.09	
14.6		Cc1cc(NC(=O)c2sc3cc(Cl)ccc3c2Cl)ccc1NC(=O)c1ccco1 [NC-2]	15.4	4.6			
	18.9	COCOc1ccc2oc(-c3ccc(C)c([N+](=O)[O-])c3)nc2c1 [ND-96]			~4.09	5.389	
	~10.1	Cc1ccc(-c2nc3ccccc3s2)cc1NC(=O)c1cccc(Cl)c1 [ND-80]			~6.55	26.88	
	~12.9	CC(C)CC(=O)Nc1ccc2oc(-c3cccc(I)c3)nc2c1 [ND-5]			12.3	12.45	

The next lines start with the compound.

Compound	EC50 [2, 5] [µM]	EC50 [2, 9] [µM]	EC50 [1, 4] [µM]	J774 IRF % activation at peak ([2]; Mouse Reporter Cell Line) [%]	EC50 ([1]; Human Reporter Cell Line THP1) [µM]	J774 IRF % activation at peak [2, 8] [%]	also measured
O=C(Nc1ccc(N2CCN(C(=O)c3cccs3)CC2)cc1)c1ccc(-c2ccccc2)nc1 [NA-41]	10.6		12.5	37.71			
O=C(Nc1ccc(N2CCN(C(=O)c3cccs3)CC2)cc1)c1ccc(Br)cc1 [NA-14]	5.23		~2.42	4.471			
O=C(Nc1ccc(N2CCN(C(=O)c3cccs3)CC2)cc1)c1ccc(OCc2ccc(F)c(F)c2F)cc1 [NA-23]			~2.31				EC50 [3, 6]: ~2.53 µM
O=C(Nc1ccc(N2CCN(C(=O)c3cccs3)CC2)cc1)c1ccc(-c2ccncc2)cc1 [NA-38]	~10.2		3.46	2.98			
O=C(Nc1ccc(N2CCN(C(=O)c3ccsc3)CC2)cc1)c1ccc(OCc2ccccc2)nc1 [NA-1]	~3.06		2.07	67.54			EC50 [3, 6]: ~3.19 µM
O=C(Nc1ccc(N2CCN(C(=O)c3cccs3)CC2)cc1)c1ccc(-c2cc3ccccc3oc2=O)cc1 [NA-32]	11.9		3.13	77.58			
Cc1ccc(COc2ccc(C(=O)Nc3ccc(N4CCN(C(=O)c5cccs5)CC4)cc3)cc2)cc1 [NA-25]	4.38		5	18.01			EC50 [3, 6]: 8.15 µM
Cc1c(Br)ccc(C(=O)Nc2ccc(N3CCN(C(=O)c4cccs4)CC3)cc2)c1C [NA-16]			~5.23				EC50 [3, 6]: 12.9 µM
Cc1ccc(NC(=O)c2cc(NC(=O)c3cccs3)ccc2N2CCOCC2)cc1Cl [NB-8]		5.67			13.9	52.86	
CCOc1ccc(C(=O)Nc2ccc(N3CCN(C(=O)c4cccs4)CC3)cc2)cc1Br [NA-30]	~3.33		1.05	2.95			
Cc1ccc2c(=O)c3cccc(CC(=O)O)c3oc2c1C [DMXAA, 5,6-dimethylxanthenone-4-acetic acid]							EC50 ([2]; J774-Dual control compound, read-out: EC50 ISRE activation): 24 µM
COc1cccc(COc2ccc(C(=O)Nc3ccc(N4CCN(C(=O)c5cccs5)CC4)cc3)cc2)c1 [NA-24, 4-((3-methoxybenzyl)oxy)-N-(4-(4-(thiophene-2-carbonyl)piperazin-1-yl)phenyl)benzamide]	4.67		4.16	111.2			
COc1ccc(C(=O)Nc2cccc(-c3nc4ncccc4o3)c2)cc1Br [ND-47]					2.1		EC50 [3, 7]: 9.71 µM
O=C(Cc1ccc(Cl)cc1)Nc1cccc(-c2nnc(-c3ccco3)o2)c1 [ND-7]					6		EC50 [3, 7]: 30.6 µM
O=C(Nc1ccc(N2CCN(C(=O)c3cccs3)CC2)cc1)c1ccc(-c2ccccc2)cn1 [NA-39]	9.81		7.91	77.89			
O=C(Nc1ccc(N2CCOCC2)c(C(=O)Nc2ccc(OCc3ccccc3)cc2)c1)c1cccs1 [NB-18]		~4.84			3.66	2.303	
Cc1ccc(NC(=O)c2cc(NC(=O)Cc3ccccc3)ccc2N2CCOCC2)cc1Cl [NB-3]		8.54				2.603	activation at 25 µM ([1]; 24 h, Human Reporter Cell Line THP1, @25 uM, read-out: THP1 NFkB % activation at peak): 38%
